Entries after “also recorded” stand apart in the source; their conditions may differ.

Results on one compound are retold here after paper PMC7355964, “Enhancement in Oral Absorption of Ceftriaxone by Highly Functionalized Magnetic Iron Oxide Nanoparticles” (Pharmaceutics, 2020).

Data set [1] can be described thus: In vivo oral pharmacokinetics studies. The arrangement: species or system Rabbits (Oryctolaguscuniculus). Conditions: rabbit, oral CFT aqueous solution. As for the experimental part:
The availability of CFT and internal standard cephalexin (CEP) in plasma was determined through reverse phase HPLC protocol developed and validated in our laboratories. The protein precipitation method was taken into account for extracting drug from plasma. Plasma (200 µL) containing both drugs was blended and vortexed with ACN (400 µL) for 2 min and the precipitate was separated by centrifugation at 15,483 G for 10 min. The acquired supernatant was concentrated in vacuum and reconstituted in buffer (TBAH, 100 µL; pH 7.0). A volume of 25 µL was injected into the HPLC system Shimadzu, LC20A (Shimadzu, Kyoto, Japan) equipped with a purospher C18 (5 µm, 250 × 4.6 mm) column. The mobile phase was comprised of ACN and TBAH buffer (0.005 M, pH 7.0) in a ratio of 25:75. The flow rate was adjusted to 1 mL/min, and the wavelength selected was 220 nm.
Animal studies were conducted under institutional guidelines by following the principals of institutional animal care. The studies were approved by the Ethics Committee of International Center for Chemical and Biological Sciences, University of Karachi (Project identification code ICCBS/CBSCR/IEC-014/2018; approved date 06-04-2018). All animals were healthy and purchased for Dow University of Health Sciences OJHA campus Karachi, Pakistan. Rabbits (Oryctolaguscuniculus) with 1.2 kg normal body weight were chosen for the assessment of oral in vivo pharmacokinetics studies. Rabbits were held under standard quarantine conditions with free access to food and water for 12 h. Before conducting the in vivo studies, rabbits were kept under fasting conditions but with free access to water. Rabbits were divided into three distinct categories (n = 4). The first category was given CFT-MIH-MNPs suspension at 25 mg/kg body weight portion. Rabbits of the second and third categories were provided with CFT in oral aqueous solution at 25 and 50 mg/kg body weight. Blood samples (1mL) were collected via marginal ear vein using an insulin plastic syringe at various intervals within 24 h. After centrifugation at 2688 G for 10 min, plasma was acquired and stored at –20 °C. Pharmacokinetics parameters were assessed by linear trapezoidal standard using a non-compartmental model from individual drug plasma concentrations with reference to a time curve for CFT after oral administration of nanoformulation and controls separately. The estimations of maximum drug plasma concentration (Cmax) and time to reach maximum plasma concentration (Tmax) were obtained from the drug plasma concentration curves. These parameters were utilized to ascertain the pharmacokinetics parameters area under the curve from zero to last quantifiable value (AUC0-24), mean residence time (MRT) and clearance (Cl).

On the set-up of data set [2]: method as in PMID 23143633. Conditions: ref [35]; cited from earlier work.

Take `CO/N=C(\C(=O)N[C@@H]1C(=O)N2C(C(=O)O)=C(CSc3nc(=O)c(=O)[nH]n3C)CS[C@H]12)c1csc(N)n1` [CFT, Ceftriaxone]: in data set [1] (albino, plasma, 50 mg/kg), the Cmax turned out to be 2000 ± 600 ng/mL, the MRT was determined as 8.4 ± 0.1 h and the Tmax came to 1.5 h. Further, the AUC(0-t) in data set [1] (albino, plasma, 50 mg/kg, read-out: AUC0-24) was found to be 16100 ± 3700 ng·h/mL. The “CFT detection in blood plasma (HPLC)” value in data set [1] (25 mg/kg) was “no drug was detected; also recorded: no detection of CFT in the blood plasma”. Besides, in data set [1] (50 mg/kg), the Clearance stood at 3.91 ± 0.4 L/h and the Volume distribution was determined as 33.0 ± 1.94 L. The compound also showed a Clearance in data set [1] (50 mg/kg, listed as CFT Solution) of 3.9 ± 0.4 L/h. Further, the “pH (early neutral pH)” value in data set [2] was “about 6.7”.
